{
  "source": "patent US20240350592A1",
  "about": "“COMPOSITION AND METHODS OF TREATMENT USING […]-ENHANCED SUPPLEMENTATION” (Xygenyx Inc., priority 2023, published 2024)",
  "origin": "cited, not measured here",
  "key": {"skin [1]": {"tested_on": "skin", "details": "topical formulations; within four weeks of treatment"}, "[2]": {"details": "single penetration enhancer"}, "F2-isoprostane": {"tested_on": "F2-isoprostane", "details": "doses of 1600-3200 IU/day"}, "[3]": {"tested_on": "neurodegenerative diseases such as Alzheimer's Syndrome or dementia", "details": "dietary supplementation, doses up to 400 IU/day; controlled trials"}, "coronary disease": {"tested_on": "coronary disease", "details": "dietary supplementation, doses up to 400 IU/day"}, "[4]": {"details": "in vivo"}, "skin [5]": {"tested_on": "skin", "details": "topical, concentrations 0.5-5%"}, "[6]": {"details": "compared to α-tocopherol taken as 1.0"}, "[7]": {"details": "even when dietary intake occurs in equal portions"}, "[8]": {"details": "in vivo", "remark": "listed apart in the source"}, "markers of inflammation": {"tested_on": "markers of inflammation", "details": "individuals with metabolic syndrome"}, "[9]": {"tested_on": "wide dynamic range neurons in the ventroposterolateral nucleus of the thalamus"}, "depression": {"tested_on": "depression", "details": "patients who did not respond to traditional antidepressant medications"}, "rheumatoid arthritis": {"tested_on": "rheumatoid arthritis", "details": "arthritic subjects"}},
  "note": "Square brackets hold non-standard residues; d marks the D form. Peptide text beside a SMILES is read from it. Cit = NC(=O)NCCC[C@H](N)C(=O)O",
  "data": [
    {"compound": "CC[C@H](C)[C@H](NC(=O)[C@H](CC(=O)O)NC(=O)[C@@H](N)CCCCN)C(=O)N[C@@H](CCCNC(N)=O)C(N)=O", "note": "[tripeptide-10 citrulline, Tripeptide-10 citrulline] (H-KDI[Cit]-NH2)", "values": [
      {"measurement": "improvement of suppleness", "setting": "skin [1]", "result": "≤ 54", "unit": "%"}
    ]},
    {"compound": "CC12CCC(CC1)C(C)(C)O2", "note": "[eucalyptol, 1,8-epoxy-p-menthane]", "values": [
      {"measurement": "factor of increase of transdermal drug uptake", "setting": "[2]", "result": "more than 10"}
    ]},
    {"compound": "Cc1c(C)c2c(c(C)c1O)CC[C@@](C)(CCC[C@H](C)CCC[C@H](C)CCCC(C)C)O2", "note": "[α-tocopherol]", "values": [
      {"measurement": "blood plasma concentration of F2-isoprostane", "setting": "F2-isoprostane", "result": "significantly lower"},
      {"measurement": "reduction of the risk of developing neurodegenerative diseases", "setting": "[3]", "result": "≤ 24", "unit": "%"},
      {"measurement": "reduction of the risk of coronary disease", "setting": "coronary disease", "result": "up to 34%"}
    ]},
    {"compound": "CCNC(=O)CC[C@H](N)C(=O)O", "note": "[Theanine]", "values": [
      {"measurement": "dose generally considered safe and well-tolerated", "setting": "[4]", "result": "up to 400 mg per day"}
    ]},
    {"compound": "C=CCCCCCCCCC(=O)N[C@@H](Cc1ccccc1)C(=O)O", "note": "[UP, Undecylenoyl phenylalanine]", "values": [
      {"measurement": "time of treatment to skin lightening effects", "setting": "skin [5]", "result": "≥ 7", "unit": "days"}
    ]},
    {"compound": "Cc1c(O)cc2c(c1C)O[C@](C)(CCC[C@H](C)CCC[C@H](C)CCCC(C)C)CC2", "note": "[γ-tocopherol]", "values": [
      {"measurement": "relative biological activity", "setting": "[6]", "result": 0.1},
      {"measurement": "concentration in vivo relative to α-tocopherol", "setting": "[7]", "result": "roughly 10%"}
    ]},
    {"compound": "HGH: hormone comprising a peptide chain that is synthesized in the pituitary gland", "values": [
      {"measurement": "biological half-life", "setting": "[8]", "result": "10-20 minutes"}
    ]},
    {"compound": "Cc1cc(O)cc2c1O[C@](C)(CCC[C@H](C)CCC[C@H](C)CCCC(C)C)CC2", "note": "[δ-tocopherol]", "values": [
      {"measurement": "markers of inflammation in the blood", "setting": "markers of inflammation", "result": "reduced"},
      {"measurement": "relative biological activity", "setting": "[6]", "result": 0.03}
    ]},
    {"compound": "CCCCCc1cc(O)c2c(c1)OC(C)(C)C1CCC(C)=CC21", "note": "(stereo not shown) [THC, Δ-9-tetrahydrocannabinol]", "values": [
      {"measurement": "power in mediating pain compared to morphine", "setting": "[9]", "result": "ten times more powerful than morphine"}
    ]},
    {"compound": "C/C(=C\\CO)CCC[C@H](C)CCC[C@H](C)CCCC(C)C", "note": "[Phytol]", "values": [
      {"measurement": "solubility in water", "result": "nearly insoluble in water"}
    ]},
    {"compound": "CC(C)[C@@H]1CC[C@@H](C)C[C@H]1O", "note": "[Menthol]", "values": [
      {"measurement": "factor of increase of transdermal drug uptake", "setting": "[2]", "result": "≥ 10"}
    ]},
    {"compound": "CN1c2c([nH]c(N)nc2=O)NCC1CNc1ccc(C(=O)N[C@@H](CCC(=O)O)C(=O)O)cc1", "note": "(stereo partly shown) [5-MTHF, 5-methyltetrahydrofolate]", "values": [
      {"measurement": "symptoms of depression", "setting": "depression", "result": "improved"}
    ]},
    {"compound": "Cc1cc(O)c(C)c2c1O[C@](C)(CCC[C@H](C)CCC[C@H](C)CCCC(C)C)CC2", "note": "[β-tocopherol]", "values": [
      {"measurement": "relative biological activity", "setting": "[6]", "result": 0.5}
    ]},
    {"compound": "C=C1CC/C=C(\\C)CC[C@@H]2[C@@H]1CC2(C)C", "note": "[β-caryophyllene]", "values": [
      {"measurement": "number of circulating and articular leukocytes", "setting": "rheumatoid arthritis", "result": "reduced"},
      {"measurement": "swelling of joints and lymph nodes", "setting": "rheumatoid arthritis", "result": "reduced"}
    ]}
  ]
}
